Values quoted from earlier work as cited in patent publication EP0713864A1, “Substituted benzoylguanidines, process for their preparation, their use as medicament of diagnostic agent as well as medicaments containing them” (HOECHST AKTIENGESELLSCHAFT, priority 1994, dated 1996).

Tested on: Kammerflimmern
Conditions: isolated rat hearts; Eur. Heart J. 9 (suppl.1): 167 (1988)

Structure (SMILES) | Unterdrückung eines künstlich ausgelösten Kammerflimmerns
N=C(N)NC(=O)c1nc(Cl)c(N)nc1N [Amilorid] | völlig unterdrückt
CCN(c1nc(N)c(C(=O)NC(=N)N)nc1Cl)C(C)C [Ethylisopropylamilorid] | Noch potenter als Amilorid
